What was measured:
[1] = biological target: T1, Aldo-keto reductase family 1 member B1 (Homo sapiens, UniProt P15121); assay: Inhibition of human AR
[2] = biological target: Aldo-keto reductase family 1 member B10 (Homo sapiens, UniProt O60218); assay: Inhibition of wild-type N-terminal 6-His tagged AKR1B10 (unknown origin) expressed in Escherichia coli BL21(DE3) assessed as pyridine-3-aldehyde reduction by spectrophotometry
[3] = biological target: T1, Aldo-keto reductase family 1 member B1; assay: Inhibition of human AR by fluorescence assay

Sequence of Aldo-keto reductase family 1 member B10 (O60218 whole entry): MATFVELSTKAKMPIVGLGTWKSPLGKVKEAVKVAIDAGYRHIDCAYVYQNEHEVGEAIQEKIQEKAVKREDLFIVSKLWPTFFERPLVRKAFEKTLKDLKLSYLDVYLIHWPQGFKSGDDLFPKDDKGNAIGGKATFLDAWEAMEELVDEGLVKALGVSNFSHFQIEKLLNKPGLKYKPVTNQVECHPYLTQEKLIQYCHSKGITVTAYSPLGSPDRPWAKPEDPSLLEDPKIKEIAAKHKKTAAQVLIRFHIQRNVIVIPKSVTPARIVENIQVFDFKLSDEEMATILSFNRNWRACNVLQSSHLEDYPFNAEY

| SMILES | IC50 [1] [µM] | IC50 [2] [µM] | IC50 [3] [µM] |
| --- | --- | --- | --- |
| CC(=O)Oc1ccccc1C(=O)Nc1ncc([N+](=O)[O-])s1 [NITAZOXANIDE] | 8.22 | – | – |
| O=C(O)Cc1ccccc1Nc1c(Cl)cccc1Cl [DICLOFENAC] | – | 1.9 | – |
| Cc1cccc(Nc2ccccc2C(=O)O)c1C [MEFENAMIC ACID] | – | 1.6 | 77 |
| O=C(O)c1ccccc1Nc1cccc(C(F)(F)F)c1 [FLUFENAMIC ACID] | – | 0.76 | – |
